From publication PMC6792352, “Limited Chemical Structural Diversity Found to Modulate Thyroid Hormone Receptor in the Tox21 Chemical Library” (Environmental Health Perspectives, 2019) come the findings set out here.

Structures can show the parent of a compound that is named as a salt.

A short description of one data set: in vitro. The settings on record: rat, gh3-tre-luc cells, AC50 (uM) modified / 1000.
The molecule `Nc1cccc([N+](=O)[O-])c1` [3-Nitroaniline] had a 50% cytotoxic concentration (CC50) at 24 h greater than 90 µM. The same measure, in the same setting: the value for `O=Cc1cccc([N+](=O)[O-])c1` [3-Nitrobenzaldehyde] was greater than 90 µM. The molecule `NC(=O)c1cccc([N+](=O)[O-])c1` [3-Nitrobenzamide] came in with a CC50 at 24 h greater than 90 µM. `O=C(O)c1cccc([N+](=O)[O-])c1` [3-Nitrobenzoic acid] showed a CC50 at 24 h greater than 90 µM.

In turn, `O=C(Cl)c1cccc([N+](=O)[O-])c1` [3-Nitrobenzoyl chloride] came in with a CC50 at 24 h greater than 90 µM. Still for that read-out and setting: as for `O=[N+]([O-])c1cccc(CCl)c1` [3-Nitrobenzyl chloride], the figure is greater than 90 µM; as for `CCCCCC(=O)CC` [3-Octanone], greater than 90 µM. Still for that read-out and setting: the value for `CC(=O)CC(=O)Nc1ccc2[nH]c(=O)[nH]c2c1` [3-Oxo-N-(2-oxo-2,3-dihydro-1H-benzimidazol-5-yl)butanamide] was greater than 90 µM; that for `CCC(=O)CC` [3-Pentanone] was greater than 90 µM. Same read-out and setting: as for `C/C=C/CC#N` [3-Pentenenitrile], the figure is greater than 90 µM. On to `OCc1cccc(Oc2ccccc2)c1` [3-Phenoxybenzenemethanol], for which the CC50 at 24 h is greater than 90 µM.

`O=C(O)c1cccc(Oc2ccccc2)c1` [3-Phenoxybenzoic acid] had a CC50 at 24 h greater than 90 µM.

`OCCCc1ccccc1` [3-Phenyl-1-propanol]: the CC50 at 24 h was greater than 50 µM. On the same count and under the same terms, as for `OC/C=C/c1ccccc1` [3-Phenyl-2-propen-1-ol], the figure is greater than 100 µM; as for `O=C(/C=C/c1ccccc1)OC/C=C/c1ccccc1` [3-Phenyl-2-propen-1-yl 3-phenylacrylate], greater than 90 µM.

As to `CC(CC=O)c1ccccc1` (centres unmarked) [3-Phenylbutyraldehyde], the CC50 at 24 h was greater than 90 µM. On the same count and under the same terms, as for `CCCC(CC)c1ccccc1` (centres unmarked) [3-Phenylhexane], the figure is greater than 90 µM; as for `CC(C)C(=O)OC/C=C/c1ccccc1` [3-Phenylprop-2-en-1-yl 2-methylpropanoate], greater than 90 µM. On the same count and under the same terms, the value for `CC(=O)OC/C=C/c1ccccc1` [3-Phenylprop-2-en-1-yl acetate] was greater than 90 µM; that for `O=C/C=C/c1ccccc1` [3-Phenylprop-2-enal] was greater than 90 µM. The same measure, in the same setting: as for `O=CCCc1ccccc1` [3-Phenylpropanal], the figure is greater than 90 µM; as for `CC(=O)OCCCc1ccccc1` [3-Phenylpropyl acetate], greater than 90 µM; as for `O=C(/C=C/c1ccccc1)OCCCc1ccccc1` [3-Phenylpropyl cinnamate], greater than 90 µM. In turn, `CCC=C1OC(=O)c2ccccc21` [3-Propylidenephthalide] displayed a 50% cytotoxic concentration (CC50) at 24 h greater than 90 µM.

In turn, `O=C1CCN(c2ccccc2)N1` [3-Pyrazolidinone,1-phenyl-] displayed a CC50 at 24 h greater than 90 µM. For the molecule `N#Cc1cccnc1` [3-Pyridinecarbonitrile], the CC50 at 24 h is greater than 90 µM.

In the case of `O=S1(=O)CC=CC1` [3-Sulfolene], the CC50 at 24 h is greater than 90 µM. Still for that read-out and setting: the value for `CCCCCCCCCCCSCC(=O)O` [3-Thiatetradecanoic acid] was 50.2 µM; that for `O=[N+]([O-])c1ccc(O)cc1C(F)(F)F` [3-Trifluoromethyl-4-nitrophenol] was 41.4 µM; that for `CC(C)(C)c1cc(CCC(=O)NN)cc(C(C)(C)C)c1O` [3-[3,5-DI(tert-butyl)-4-hydroxyphenyl]propanohydrazide] was greater than 90 µM.

The molecule `O=C(CCS)OCC(COC(=O)CCS)(COC(=O)CCS)COC(=O)CCS` [3-[(3-Sulfanylpropanoyl)oxy]-2,2-bis{[(3-sulfanylpropanoyl)oxy]methyl}propyl 3-sulfanylpropanoate] displayed a CC50 at 24 h greater than 90 µM. On the same count and under the same terms, as for `N#CCCN(CCO)CCO` [3-[Bis(2-hydroxyethyl)amino]propanenitrile], the figure is greater than 90 µM. Same read-out and setting: the value for `CCN(CCC#N)c1ccccc1` [3-[Ethyl(phenyl)amino]propanenitrile] was greater than 90 µM; that for `CC(C)(C)c1cccc(O)c1` [3-tert-Butylphenol] was greater than 90 µM; that for `O=C(CCN1CC1)OCC(CO)(COC(=O)CCN1CC1)COC(=O)CCN1CC1` [3-{[3-(Aziridin-1-yl)propanoyl]oxy}-2-({[3-(aziridin-1-yl)propanoyl]oxy}methyl)-2-(hydroxymethyl)propyl 3-(aziridin-1-yl)propanoate] was greater than 90 µM. On the same count and under the same terms, the value for `CN(C)CCCNCCC#N` [3-{[3-(Dimethylamino)propyl]amino}propanenitrile] was greater than 90 µM.

`C1=CCC2CC=CC2C1` (centres unmarked) [3a,4,7,7a-Tetrahydroindene] gave a CC50 at 24 h greater than 90 µM. The same measure, in the same setting: the value for `CCN(CC)CCO[C@H]1CC[C@@]2(C)C(=CC[C@@H]3[C@@H]2CC[C@]2(C)C(=O)CC[C@@H]32)C1` [3beta-(2-Diethylaminoethoxy)androst-5-en-17-one hydrochloride] was greater than 50 µM; that for `CC(=O)O[C@H]1CC[C@@]2(C)C(=CC[C@H]3[C@@H]4CC[C@H](C(C)=O)[C@@]4(C)CC[C@@H]32)C1` [3beta-Acetoxy-5-pregnene-20-one] was greater than 50 µM; that for `COc1cc(NC(=O)CC(C)=O)c(OC)cc1Cl` [4'-Chloro-2',5'-dimethoxyacetoacetanilide] was greater than 90 µM. As for `Nc1ccc(-c2ccc(F)cc2)cc1` [4'-Fluoro-4-aminodiphenyl], the CC50 at 24 h is greater than 90 µM. `COc1ccc(C(C)=O)cc1` [4'-Methoxyacetophenone] showed a CC50 at 24 h greater than 90 µM. Same read-out and setting: the value for `CC(=O)c1ccc(OCC(=O)N2CCCCC2)cc1` [4'-Piperidinylcarbonylmethoxyacetophenone] was greater than 50 µM; that for `CC(=O)Nc1ccc(S(N)(=O)=O)cc1` [4'-Sulfamylacetanilide] was greater than 90 µM. In turn, `CC(=O)c1c(C)cc(C(C)(C)C)cc1C` [4'-tert-Butyl-2',6'-dimethylacetophenone] gave a CC50 at 24 h greater than 90 µM. Still for that read-out and setting: the value for `CC(c1ccc(O)cc1)(c1ccc(O)cc1)c1ccc(O)cc1` [4,4',4"-Ethane-1,1,1-triyltriphenol] was 55.5 µM. The same measure, in the same setting: the value for `Oc1ccc(C2(c3ccc(O)cc3)c3ccccc3-c3ccccc32)cc1` [4,4'-(9H-Fluorene-9,9-diyl)diphenol] was 28.7 µM. The same measure, in the same setting: the value for `C1CN(CCOCCN2CCOCC2)CCO1` [4,4'-(Oxydiethylene)bis(morpholine)] was greater than 90 µM.

Molecule `Oc1ccc(-c2ccc(O)cc2)cc1` [4,4'-Biphenyldiol] gave a 50% cytotoxic concentration (CC50) at 24 h greater than 90 µM. On the same count and under the same terms, the value for `c1cc(-c2ccncc2)ccn1` [4,4'-Bipyridine] was greater than 90 µM; that for `CCCC(c1cc(C(C)(C)C)c(O)cc1C)c1cc(C(C)(C)C)c(O)cc1C` [4,4'-Butane-1,1-diylbis(2-tert-butyl-5-methylphenol)] was 3.97 µM. `CC(C)(C)c1ccc(-c2ccc(C(C)(C)C)cc2)cc1` [4,4'-Di-tert-butylbiphenyl] returned a CC50 at 24 h greater than 90 µM. On the same count and under the same terms, as for `Nc1ccc(C=Cc2ccc(N)cc2S(=O)(=O)O)c(S(=O)(=O)O)c1` [4,4'-Diamino-2,2'-stilbenedisulfonic acid], the figure is greater than 50 µM; as for `Cc1cc(Cc2ccc(N)c(C)c2)ccc1N` [4,4'-Diamino-3,3'-dimethyldiphenylmethane], greater than 90 µM. `Nc1ccc(N=Nc2ccc(N)cc2)cc1` [4,4'-Diaminoazobenzene] gave a CC50 at 24 h of 32.1 µM. The same measure, in the same setting: as for `Nc1ccc(NC(=O)c2ccc(N)cc2)cc1` [4,4'-Diaminobenzanilide], the figure is greater than 90 µM; as for `NC1CCC(CC2CCC(N)CC2)CC1` (centres unmarked) [4,4'-Diaminodicyclohexylmethane], greater than 90 µM; as for `CC(C#N)(CCC(=O)O)N=NC(C)(C#N)CCC(=O)O` (centres unmarked) [4,4'-Diazene-1,2-diylbis(4-cyanopentanoic acid)], greater than 90 µM. Still for that read-out and setting: as for `O=C(C(=O)c1ccc(Br)cc1)c1ccc(Br)cc1` [4,4'-Dibromobenzil], the figure is greater than 30 µM; as for `Brc1ccc(Oc2ccc(Br)cc2)cc1` [4,4'-Dibromodiphenyl ether], greater than 90 µM. Still for that read-out and setting: as for `O=C(c1ccc(Cl)cc1)c1ccc(Cl)cc1` [4,4'-Dichlorobenzophenone], the figure is greater than 90 µM. With `O=S(=O)(c1ccc(Cl)cc1)c1ccc(Cl)cc1` [4,4'-Dichlorodiphenyl sulfone], the CC50 at 24 h is greater than 90 µM. Same read-out and setting: the value for `O=C(c1ccc(O)cc1)c1ccc(O)cc1` [4,4'-Dihydoxybenzophenone] was greater than 90 µM; that for `COc1ccc(Nc2ccc(OC)cc2)cc1` [4,4'-Dimethoxydiphenylamine] was 50.3 µM; that for `O=C(Nc1ccc([N+](=O)[O-])cc1)Nc1ccc([N+](=O)[O-])cc1` [4,4'-Dinitrodiphenylurea] was greater than 50 µM. Still for that read-out and setting: the value for `O=C=Nc1ccc(Cc2ccc(N=C=O)cc2)cc1` [4,4'-Diphenylmethane diisocyanate] was greater than 90 µM; that for `CC(C)(C)c1cc(Cc2cc(C(C)(C)C)c(O)c(C(C)(C)C)c2)cc(C(C)(C)C)c1O` [4,4'-Methylenebis(2,6-di-t-butylphenol)] was greater than 90 µM. Still for that read-out and setting: as for `CCc1cc(Cc2cc(CC)c(N)c(CC)c2)cc(CC)c1N` [4,4'-Methylenebis(2,6-diethylaniline)], the figure is 61.9 µM. The molecule `Nc1ccc(Cc2ccc(N)c(Cl)c2)cc1Cl` [4,4'-Methylenebis(2-chloroaniline)] came in with a CC50 at 24 h of 67.7 µM. On the same count and under the same terms, the value for `CN(C)c1ccc(Cc2ccc(N(C)C)cc2)cc1` [4,4'-Methylenebis(N,N-dimethylaniline)] was greater than 90 µM.

Still in this data set, the particulars now being: rat, gh3-tre-luc cells, AC50 (uM) modified / 1000, Tox21_110001=Tox21_200022; viability, 1 nM T3 present, 24 h.
In the case of `O=[N+]([O-])c1cccc(O)c1` [3-Nitrophenol], the 50% cytotoxic concentration (CC50) at 24 h was greater than 90 µM.

Staying with this data set, now noted: rat, gh3-tre-luc cells, AC50 (uM) modified / 1000, Tox21_110001=Tox21_201650; viability, 1 nM T3 present, 24 h.
The molecule `Nc1cccnc1` [3-Pyridinamine] came in with a CC50 at 24 h greater than 90 µM.

The data set is the same for the next values; noted with them: rat, gh3-tre-luc cells, AC50 (uM) modified / 1000, Tox21_110001=Tox21_202368; viability, 1 nM T3 present, 24 h.
Take `O=Cc1cccc(Oc2ccccc2)c1` [3-Phenoxybenzaldehyde]: the CC50 at 24 h is greater than 90 µM.

The data set is the same for the next values; noted with them: rat, gh3-tre-luc cells, AC50 (uM) modified / 1000, Tox21_110001=Tox21_202460; viability, 1 nM T3 present, 24 h.
As for `O=C(O)CC[N+](=O)[O-]` [3-Nitropropionic acid], the 50% cytotoxic concentration (CC50) at 24 h was greater than 90 µM.

The CC50 is the concentration giving 50% cytotoxicity. Read a high CC50 as better tolerance by the cells.
